In patent US20220339257A1, “METHODS TO INCREASE THE SENSITIVITY AND REVERSING THE RESISTANCE TO DRUGS” (Biomarker Strategies, LLC, priority 2019, published 2022):

B1: interferon-alpha-1 (protein, UniProt P01562 24-189, looked up)
Interferon alpha-1/13: CDLPETHSLDNRRTLMLLAQMSRISPSSCLMDRHDFGFPQEEFDGNQFQKAPAISVLHELIQQIFNLFTTKDSSAAWDEDLLDKFCTELYQQLNDLEACVMQEERVGETPLMNADSILAVKKYFRRITLYLTEKKYSPCAWEVVRAEIMRSLSLSTNLQERLRRKE
notes: enhancer molecule, cytokine purchased from Sigma

Legend:
Experiment in all cases: WST-8 cell viability assay
Format in all cases: cell-based
A498 = conditions: in combination with cetuximab, 72 hours
Experimental: (§1) Day 1: cells were harvested cells from flask (4 mL accutase for T175 for 3-5 minutes), and spin down for 5 mins at 1200 rpm. The supernatant was poured off, and the pellet gently resuspended in 1 mL media. Countess counts were performed, and the cells were diluted in media (10% FBS). With multi-channel pipette, 2500 cells were seeded in 100 uL of media (10% FBS) in each well of 96 well plate. The cells were let to adhere and grow for 24 hours. Day 2: serial drug dilutions of MTAs+/−EMs at 5× of concentrations (as done above) were performed in media (10% FBS). 20 uL of media form each well of the 96 well plate (80 uL media left in wells) was removed, and 20 uL of appropriate 5× drug dilutions was added to each respective well (for a 1× conc). The cells were incubated with drug for 72 hours in 37C incubator. Day 5: 10 uL of WST-8 reagent was added to each well of the 96 well plate and mixed gently. the plates were incubated up to 4 hours at 37C in dark, and absorbance readings were taken at […] and 600 nm wavelengths at 1, 2, 3 and 4h, until control absorbance levels were 1.5-2.0).
(§2) WST-8 Assay: MTA and EM effects on cell viability were measured by Cell Counting Kit8 (WST-8) colorimetric assay using water-soluble tetrazolium salt WST-8 reagent (Vita Scientific Cat. #DBOC00128). For the assay, cells were seeded in 96-well plates at 2,500 cells per well, in 100 μL of 10% FBS-containing media. After 24 hours, a 1 nM to 10 μM range of MTA and/or 1 ng/mL to 1 mg/mL range of EM doses was added and incubated for 72 hours. After treatment, a 10% volume of WST-8 reagent was added to each well and cells were incubated at 37° C. for up to 4 hours. Solution absorbance was measured at wavelengths of 450 nm and 600 nm at 1-, 2-, 3-, and 4-hour's incubation. Percentage viability of drug-treated cells was calculated relative to untreated control cells. Results were confirmed by three independent experiments.
(§3) For studying the effects of various molecularly targeted agents (MTAs) and enhancer molecules (EMs) alone as well as in combination: HCC827, PC-9, A427, Calu-6, H2228, H358, H1299, H460, H292, H1838, H2170, and H226 (non-small cell lung cancer; NSCLC); and SK-MES-1 […], CAL27, OE21, KYSE-70, A-253, BICR-16, PE/CA-PJ15 and Ca9-22 (head and neck squamous cell carcinoma; HNSCC); SK-MEL-2, SK-MEL-28, RPMI-7951 and A7 (melanoma); HTB-38 and HCT116 (colorectal cancer; CRC); BxPC-3 and HPAF-II (pancreatic cancer); HEPG2 (hepatocellular carcinoma; HCC); A498 (renal cell carcinoma; RCC) cells were used. Other cell lines, including those from other cancer types, or cells collected from more complex sample types such as xenografts and clinical samples can be used. Ultimately, these combinations can be utilized in various clinical and pre-clinical samples and studies. Using the WST-8 cell viability assay, a MTA+EM-induced anti-cancer/anti-growth activity in multiple cell lines was discovered (FIGS. 8-15). Other viability assays, for example, MTT, HoPI staining, dye exclusion (e.g. trypan blue), can be used readily. […] The cut-off value for classifying a “strong anti-cancer/anti-growth enhancement” was a response resulting in >70% reduction in cell survival compared to untreated control cells (100%), while showing greater reduction compared to both MTA and EM alone.

BICR-16 = conditions: in combination with IFN-γ, 72 hours
Experimental: as §1, §2, §3

Calu-6 = conditions: in combination with IFN-γ, 72 hours
Experimental: as §1, §2, §3

HTB-38 = conditions: in combination with IFN-γ, 72 hours
Experimental: as §1, §2, §3

OE21 = conditions: in combination with GSK-458, 72 hours
Experimental: as §1, §2, §3

PC-9 = conditions: in combination with trametinib; PC-9 (EGFR E746_A750del); 72 hours
Experimental: as §1, §2, §3

RPMI-7951 = system: RPMI-7951
Experimental: as §1, §2, §3

erlotinib-resistant PC-9 = system: erlotinib-resistant PC-9
Experimental: as §1, §2, §3

Ca9-22 = system: Ca9-22
Experimental: as §1, §2, §3

[1] = in combination with GSK-458, 72 hours
[2] = in combination with trametinib, 72 hours

Molecule | anti-cancer/growth enhancement (WST-8 cell viability) (A498) | anti-cancer/growth enhancement (WST-8 cell viability) (BICR-16) | anti-cancer/growth enhancement (WST-8 cell viability) (Calu-6) | anti-cancer/growth enhancement (WST-8 cell viability) (HTB-38) | anti-cancer/growth enhancement (WST-8 cell viability) (OE21) | anti-cancer/growth enhancement (WST-8 cell viability) (PC-9) | anti-cancer/growth enhancement (WST-8 cell viability) (RPMI-7951; [1]) | anti-cancer/growth enhancement (WST-8 cell viability) (RPMI-7951; in combination with dabrafenib, 72 hours) | anti-cancer/growth enhancement (WST-8 cell viability) (erlotinib-resistant PC-9; [1]) | anti-cancer/growth enhancement (WST-8 cell viability) (erlotinib-resistant PC-9; [2]) | anti-cancer/growth enhancement (WST-8 cell viability) (Ca9-22; [1]) | anti-cancer/growth enhancement (WST-8 cell viability) (Ca9-22; in combination with GSK-795, 72 hours) | anti-cancer/growth enhancement (WST-8 cell viability) (Ca9-22; in combination with everolimus, 72 hours) | anti-cancer/growth enhancement (WST-8 cell viability) (Ca9-22; in combination with metformin, 72 hours) | anti-cancer/growth enhancement (WST-8 cell viability) (Ca9-22; in combination with osimertinib, 72 hours) | anti-cancer/growth enhancement (WST-8 cell viability) (Ca9-22; [2])
tumor necrosis factor-alpha [EM2] | moderate-to-strong anti-cancer/growth enhancement | moderate-to-strong anti-cancer/growth enhancement | moderate-to-strong anti-cancer/growth enhancement | moderate-to-strong anti-cancer/growth enhancement | moderate-to-strong anti-cancer/growth enhancement | moderate-to-strong anti-cancer/growth enhancement | moderate-to-strong anti-cancer/growth enhancement | moderate-to-strong anti-cancer/growth enhancement | moderate-to-strong anti-cancer/growth enhancement | moderate-to-strong anti-cancer/growth enhancement |  |  |  |  |  | 
B1 |  |  |  |  |  |  |  |  |  |  | anti-cancer/growth enhancement | anti-cancer/growth enhancement | anti-cancer/growth enhancement | anti-cancer/growth enhancement | anti-cancer/growth enhancement | anti-cancer/growth enhancement
